{"source": "patent US20210008176A1", "about": "“COMPOSITIONS COMPRISING SULFORAPHANE OR A SULFORAPHANE PRECURSOR AND MAGNESIUM” (NUTRAMAX LABORATORIES, INC., priority 2012, published 2021)", "key": {"[1]": {"test_system": "monocyte chemoattractant protein (MCP-1)", "settings": "RAW cells, 1μg/mL LPS 30 minutes, then 24 hours treatment; 0.5 μM SFN, 2.5 mM MgSO4, or both", "procedure": "The following study was conducted to determine the effect of the combination of sulforaphane and magnesium sulfate (MgSO4) on expression of monocyte chemoattractant protein (MCP-1), which is a mediator of inflammation. MCP-1 is chemokine which attracts monocytes, macrophages, and lymphocytes to sites of inflammation. A reduction in MCP-1 is beneficial for the health of endothelial cells which line the cardiovascular system.\nIn the study, RAW cells were activated with 1μg/mL lipopolysaccharide (LPS) for 30 minutes to stimulate the induction of MCP-1 gene expression. Following LPS treatment, the cells were treated with one of the following: (i) DMSO (vehicle control), (ii) 0.5 μM SFN, (iii) 2.5 mM MgSO4, or (iv) the combination of 0.5 μM SFN and 2.5 mM MgSO4. After treatment for 24 hours, the MCP-1 levels were assessed via quantitative RT-PCR."}, "[2]": {"test_system": "myrosinase", "test": "Equimolar conversion of glucoraphanin to sulforaphane by myrosinase with and without ascorbic acid", "format": "biochemical, broccoli", "settings": "control sample, without ascorbic acid", "procedure": "A two-part experiment was conducted to further elucidate the role of ascorbic acid in modulating myrosinase activity. […] A control sample contained no ascorbic acid, and the enzymatic conversion proceeded unassisted by a co-factor. PART 1. […] PART 2. While keeping the amount of broccoli seed extract fixed at 250 mg, the concentration of ascorbic acid was varied from 0.4 mmol/Liter to 3.8 mmol/Liter."}, "[3]": {"test_system": "broccoli sprout-derived myrosinase", "test": "Consumption of glucoraphanin by myrosinase as a function of ascorbic acid concentration", "format": "biochemical", "settings": "for glucoraphanin (GR) content: 38° C.; for Slope (rate of glucoraphanin consumption): linear regression 0-60 min", "procedure": "Consumption of Glucoraphanin as a Function of the Ascorbic Acid Concentration.\nAbout 250 mg of broccoli seed extract containing about 12% (w/w) glucoraphanin were subjected to hydrolysis by a fixed concentration of broccoli sprout-derived myrosinase in the presence of variable concentration of ascorbic acid, ranging from 0 to 600 μmoles/Liter. The reaction mixtures were thermostated at 38° C.; aliquots were withdrawn every 15 minutes for 60 minutes, and concentration of glucoraphanin determined chromatographically. The rate of glucoraphanin consumption was interpreted as the rate its conversion to sulforaphane. Graphical representation of glucoraphanin content reduction as a function of increasing ascorbic acid concentration results in a series of linear plots; the slopes of the linear regression lines reflect the rate of glucoraphanin consumption, in μmoles/minute. It is apparent that in the presence of 600 μmoles/Liter concentration of ascorbic acid, the reaction rate increased 13-fold relative to that which proceeded in the absence of modulatory effects of ascorbic acid."}}}
{"smiles": "O=S(=O)([O-])[O-].[Mg+2]", "note": "[magnesium sulfate]", "values": [{"measurement": "reduction in MCP-1 levels", "setting": "[1]", "result": "approximately 16%"}]}
{"smiles": "C[S+]([O-])CCCCN=C=S", "note": "(stereo not drawn) [sulforaphane, 1-isothiocyanato-4-methylsulfinylbutane]", "values": [{"measurement": "reduction in MCP-1 levels", "setting": "[1]", "result": "approximately 29%"}]}
{"smiles": "C[S+]([O-])CCCC/C(=N\\OS(=O)(=O)O)S[C@@H]1O[C@H](CO)[C@@H](O)[C@H](O)[C@H]1O", "note": "(stereo partly drawn) [GR, 4-methylsulfinylbutyl glucosinolate]", "values": [{"measurement": "stoichiometry of glucoraphanin conversion to sulforaphane", "setting": "[2]", "result": "equimolar conversion"}, {"measurement": "glucoraphanin (GR) content", "setting": "[3]; ascorbic acid 0 μM, 0 min", "result": 93.36, "unit": "µmol"}, {"measurement": "glucoraphanin (GR) content", "setting": "[3]; ascorbic acid 0 μM, 15 min", "result": 92.24, "unit": "µmol"}, {"measurement": "glucoraphanin (GR) content", "setting": "[3]; ascorbic acid 0 μM, 30 min", "result": 90.71, "unit": "µmol"}, {"measurement": "glucoraphanin (GR) content", "setting": "[3]; ascorbic acid 0 μM, 45 min", "result": 89.44, "unit": "µmol"}, {"measurement": "glucoraphanin (GR) content", "setting": "[3]; ascorbic acid 0 μM, 60 min", "result": 87.79, "unit": "µmol"}, {"measurement": "Slope (rate of glucoraphanin consumption)", "setting": "[3]; ascorbic acid 0 μM", "result": -0.09293, "unit": "µmol/min"}, {"measurement": "glucoraphanin (GR) content", "setting": "[3]; ascorbic acid 50 μM, 0 min", "result": 93.36, "unit": "µmol"}, {"measurement": "glucoraphanin (GR) content", "setting": "[3]; ascorbic acid 50 μM, 15 min", "result": 89.20, "unit": "µmol"}, {"measurement": "glucoraphanin (GR) content", "setting": "[3]; ascorbic acid 50 μM, 30 min", "result": 84.24, "unit": "µmol"}, {"measurement": "glucoraphanin (GR) content", "setting": "[3]; ascorbic acid 50 μM, 45 min", "result": 80.30, "unit": "µmol"}, {"measurement": "glucoraphanin (GR) content", "setting": "[3]; ascorbic acid 50 μM, 60 min", "result": 76.36, "unit": "µmol"}, {"measurement": "Slope (rate of glucoraphanin consumption)", "setting": "[3]; ascorbic acid 50 μM", "result": -0.286, "unit": "µmol/min"}, {"measurement": "glucoraphanin (GR) content", "setting": "[3]; ascorbic acid 125 μM, 0 min", "result": 93.36, "unit": "µmol"}, {"measurement": "glucoraphanin (GR) content", "setting": "[3]; ascorbic acid 125 μM, 15 min", "result": 84.52, "unit": "µmol"}, {"measurement": "glucoraphanin (GR) content", "setting": "[3]; ascorbic acid 125 μM, 30 min", "result": 75.92, "unit": "µmol"}, {"measurement": "glucoraphanin (GR) content", "setting": "[3]; ascorbic acid 125 μM, 45 min", "result": 68.09, "unit": "µmol"}, {"measurement": "glucoraphanin (GR) content", "setting": "[3]; ascorbic acid 125 μM, 60 min", "result": 59.41, "unit": "µmol"}, {"measurement": "Slope (rate of glucoraphanin consumption)", "setting": "[3]; ascorbic acid 125 μM", "result": -0.5622, "unit": "µmol/min"}, {"measurement": "glucoraphanin (GR) content", "setting": "[3]; ascorbic acid 250 μM Filtered, 0 min", "result": 93.36, "unit": "µmol"}, {"measurement": "glucoraphanin (GR) content", "setting": "[3]; ascorbic acid 250 μM Filtered, 15 min", "result": 86.31, "unit": "µmol"}, {"measurement": "glucoraphanin (GR) content", "setting": "[3]; ascorbic acid 250 μM Filtered, 30 min", "result": 79.44, "unit": "µmol"}, {"measurement": "glucoraphanin (GR) content", "setting": "[3]; ascorbic acid 250 μM Filtered, 45 min", "result": 71.94, "unit": "µmol"}, {"measurement": "glucoraphanin (GR) content", "setting": "[3]; ascorbic acid 250 μM Filtered, 60 min", "result": 65.18, "unit": "µmol"}, {"measurement": "Slope (rate of glucoraphanin consumption)", "setting": "[3]; ascorbic acid 250 μM Filtered", "result": -0.4714, "unit": "µmol/min"}, {"measurement": "glucoraphanin (GR) content", "setting": "[3]; ascorbic acid 250 μM, 0 min", "result": 93.36, "unit": "µmol"}, {"measurement": "glucoraphanin (GR) content", "setting": "[3]; ascorbic acid 250 μM, 15 min", "result": 80.95, "unit": "µmol"}, {"measurement": "glucoraphanin (GR) content", "setting": "[3]; ascorbic acid 250 μM, 30 min", "result": 69.06, "unit": "µmol"}, {"measurement": "glucoraphanin (GR) content", "setting": "[3]; ascorbic acid 250 μM, 45 min", "result": 57.63, "unit": "µmol"}, {"measurement": "glucoraphanin (GR) content", "setting": "[3]; ascorbic acid 250 μM, 60 min", "result": 45.76, "unit": "µmol"}, {"measurement": "Slope (rate of glucoraphanin consumption)", "setting": "[3]; ascorbic acid 250 μM", "result": -0.7901, "unit": "µmol/min"}, {"measurement": "glucoraphanin (GR) content", "setting": "[3]; ascorbic acid 400 μM, 0 min", "result": 93.36, "unit": "µmol"}, {"measurement": "glucoraphanin (GR) content", "setting": "[3]; ascorbic acid 400 μM, 15 min", "result": 78.32, "unit": "µmol"}, {"measurement": "glucoraphanin (GR) content", "setting": "[3]; ascorbic acid 400 μM, 30 min", "result": 62.78, "unit": "µmol"}, {"measurement": "glucoraphanin (GR) content", "setting": "[3]; ascorbic acid 400 μM, 45 min", "result": 47.67, "unit": "µmol"}, {"measurement": "glucoraphanin (GR) content", "setting": "[3]; ascorbic acid 400 μM, 60 min", "result": 33.15, "unit": "µmol"}, {"measurement": "Slope (rate of glucoraphanin consumption)", "setting": "[3]; ascorbic acid 400 μM", "result": -1.007, "unit": "µmol/min"}, {"measurement": "glucoraphanin (GR) content", "setting": "[3]; ascorbic acid 600 μM, 0 min", "result": 93.36, "unit": "µmol"}, {"measurement": "glucoraphanin (GR) content", "setting": "[3]; ascorbic acid 600 μM, 15 min", "result": 75.02, "unit": "µmol"}, {"measurement": "glucoraphanin (GR) content", "setting": "[3]; ascorbic acid 600 μM, 30 min", "result": 55.66, "unit": "µmol"}, {"measurement": "glucoraphanin (GR) content", "setting": "[3]; ascorbic acid 600 μM, 45 min", "result": 37.50, "unit": "µmol"}, {"measurement": "glucoraphanin (GR) content", "setting": "[3]; ascorbic acid 600 μM, 60 min", "result": 22.09, "unit": "µmol"}, {"measurement": "Slope (rate of glucoraphanin consumption)", "setting": "[3]; ascorbic acid 600 μM", "result": -1.2, "unit": "µmol/min"}]}
